How the values were obtained:
[1] = Neuroprotective activity against glutamate-induced neurotoxicity in Sprague-Dawley rat primary cerebellar granule neurons assessed as cell viability at 10 uM pre-incubated for 24 hrs before glutamate stimulation for 24 hrs by MTT assay; assay type: functional; conditions: Neuron, read-out: Activity
[2] = target: Glycogen synthase kinase-3 beta (Homo sapiens, UniProt P49841)
Chain of Glycogen synthase kinase-3 beta (P49841 whole entry): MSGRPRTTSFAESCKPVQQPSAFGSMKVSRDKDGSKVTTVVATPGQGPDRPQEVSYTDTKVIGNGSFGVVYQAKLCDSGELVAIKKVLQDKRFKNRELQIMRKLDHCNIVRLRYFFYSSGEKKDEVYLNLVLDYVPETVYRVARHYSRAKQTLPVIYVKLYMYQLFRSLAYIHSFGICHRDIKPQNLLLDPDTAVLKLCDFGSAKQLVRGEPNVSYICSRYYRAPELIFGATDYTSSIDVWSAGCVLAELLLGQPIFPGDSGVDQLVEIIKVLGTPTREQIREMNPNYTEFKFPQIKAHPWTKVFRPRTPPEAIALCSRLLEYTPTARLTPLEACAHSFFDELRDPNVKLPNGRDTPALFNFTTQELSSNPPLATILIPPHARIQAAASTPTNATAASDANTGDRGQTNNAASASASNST
Description: Inhibition of recombinant GST-tagged GSK-3beta (unknown origin) expressed in Escherichia coli strain BL21-Codon Plus (DE3) using Ser/Thr 9 peptide substrate by Z'-LYTE kinase assay

Compound `Cn1cc(C2=C(c3nnc4ccccn34)C(=O)NC2=O)c2ccc(F)cc21` has a viability at 10 µM [1] of 59.7% and an IC50 [2] of 0.204 µM.
`Cn1cc(C2=C(c3nnc4ccccn34)C(=O)NC2=O)c2cc(F)ccc21` showed a viability at 10 µM [1] of 71.6% and an IC50 [2] of 0.188 µM.
`COc1ccc2c(c1)c(C1=C(c3nnc4ccccn34)C(=O)NC1=O)cn2C` gave an IC50 [2] of 0.942 µM.
Work on `Cc1cccc2c(C3=C(c4nnc5ccccn45)C(=O)NC3=O)cn(C)c12` yielded a viability at 10 µM [1] of 94.3% and an IC50 [2] of 0.105 µM.
Compound `C=CCn1cc(C2=C(c3nnc4ccccn34)C(=O)NC2=O)c2ccccc21` has an IC50 [2] of 0.0736 µM.
With `O=C1NC(=O)C(c2nnc3ccccn23)=C1c1cn(CCCn2ccnc2)c2ccccc12` the viability at 10 µM [1] was 60.6% and the IC50 [2] was 0.036 µM.
`Cn1cc(C2=C(c3nnc4ccccn34)C(=O)NC2=O)c2ccccc21` showed a viability at 10 µM [1] of 83.6% and an IC50 [2] of 0.154 µM.
Work on `O=C1NC(=O)C(c2nnc3ccccn23)=C1c1c[nH]c2ccccc12` yielded an IC50 [2] of 0.477 µM.
For `O=C1NC(=O)C(c2nnc3ccccn23)=C1c1cn(CCCO)c2ccccc12`, the IC50 [2] was 0.121 µM.
For `O=C1NC(=O)C(c2nnc3ccccn23)=C1c1cn(CCCN2CCOCC2)c2ccccc12`, the IC50 [2] was 0.2 µM.
In the case of `Cn1cc(C2=C(c3nnc4ccccn34)C(=O)NC2=O)c2cc(Cl)ccc21`, the viability at 10 µM [1] is reported as 95.1% and the IC50 [2] is reported as 0.0741 µM.
For `CC(C)n1cc(C2=C(c3nnc4ccccn34)C(=O)NC2=O)c2ccccc21`, the viability at 10 µM [1] was 94.4% and the IC50 [2] was 0.013 µM.
Compound `Cn1cc(C2=C(c3nnc4ccccn34)C(=O)NC2=O)c2cc(Br)ccc21` has a viability at 10 µM [1] of 93.5% and an IC50 [2] of 0.0635 µM.
`CCCCn1cc(C2=C(c3nnc4ccccn34)C(=O)NC2=O)c2ccccc21` showed a viability at 10 µM [1] of 93.2% and an IC50 [2] of 0.0697 µM.
`Cn1cc(C2=C(c3nnc4ccccn34)C(=O)NC2=O)c2ccc(Cl)cc21` gave a viability at 10 µM [1] of 55.7% and an IC50 [2] of 0.159 µM.
Compound `Cn1cc(C2=C(c3nnc4ccccn34)C(=O)NC2=O)c2ccc(Br)cc21` has an IC50 [2] of 0.327 µM.
